Test results: patent US6399349B1, “Human aminopeptidase P gene” (priority 1997, dated 2002)
Where two headings read alike, the source gives them in different places. Where no end group is shown, it is not given here. [ ]: non-standard residue; d: D form. Hyp = O=C(O)[C@@H]1C[C@@H](O)CN1

Key:
[1] = tested on: AmP and ACE; test: Mean systemic arterial blood pressure effects of BK injected i.v. or i.a. (log dose-response curves)
Experimental: To the extent that pulmonary AmP contributes to BK inactivation, saturation of AmP with an inhibitor or alternative substrate should, in effect, potentiate blood pressure effects of i.v. BK.
To clarify relative contributions of ACE and AmP to the metabolic fate of BK administered i.v., blood pressure effects of i.v. BK under control conditions and then after administration of a long-acting ACE inhibitor, RAC-X-65, were compared. After ACE inhibition, BK was injected (i.v. and i.a.) alone or BK co-mixed with APPBz at a dose capable of saturating AmP (2 μmol/kg).

[2] = tested on: AmP; details: cited from earlier work
[3] = target: T1, Pig kidney AmP (Sus scrofa, UniProt Q95333); details: concentration that derivatizes two H residues per molecule of AmP; cited from earlier work
T1 construct: host or cells: pig kidney
T1 sequence (Q95333 22-649): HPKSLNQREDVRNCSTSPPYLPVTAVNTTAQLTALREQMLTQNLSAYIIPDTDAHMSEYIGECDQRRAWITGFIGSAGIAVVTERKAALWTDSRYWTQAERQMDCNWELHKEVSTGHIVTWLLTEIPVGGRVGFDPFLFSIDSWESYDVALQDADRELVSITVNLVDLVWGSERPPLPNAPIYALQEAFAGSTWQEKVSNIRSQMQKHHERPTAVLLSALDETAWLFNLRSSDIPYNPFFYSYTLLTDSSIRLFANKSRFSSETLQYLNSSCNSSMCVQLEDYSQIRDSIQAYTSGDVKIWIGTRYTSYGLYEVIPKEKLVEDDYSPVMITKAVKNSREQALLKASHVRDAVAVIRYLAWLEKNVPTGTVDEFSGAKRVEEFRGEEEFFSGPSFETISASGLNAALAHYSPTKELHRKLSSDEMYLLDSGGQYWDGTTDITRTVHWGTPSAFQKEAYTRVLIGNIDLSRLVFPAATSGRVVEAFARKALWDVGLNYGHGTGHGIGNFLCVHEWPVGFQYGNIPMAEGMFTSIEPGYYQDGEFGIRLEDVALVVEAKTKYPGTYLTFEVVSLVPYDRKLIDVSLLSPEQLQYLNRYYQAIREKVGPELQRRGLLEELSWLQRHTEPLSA

[4] = target: rat lung aminopeptidase P (rat) (UniProt Q99MA2); test: cell-based or functional assay
[5] = tested on: guinea pig serum AmP; details: in vitro; cited from earlier work
[6] = 2-3 sec, right to left side of the heart; cited from earlier work
[7] = target: T2, pulmonary endothelial AmP (Rattus norvegicus, UniProt Q99MA2); test: in vivo; details: read-out: ED50: coinjected dose that reduces hydrolysis of APPBz-3H by half
T2 sequence (Q99MA2 23-650): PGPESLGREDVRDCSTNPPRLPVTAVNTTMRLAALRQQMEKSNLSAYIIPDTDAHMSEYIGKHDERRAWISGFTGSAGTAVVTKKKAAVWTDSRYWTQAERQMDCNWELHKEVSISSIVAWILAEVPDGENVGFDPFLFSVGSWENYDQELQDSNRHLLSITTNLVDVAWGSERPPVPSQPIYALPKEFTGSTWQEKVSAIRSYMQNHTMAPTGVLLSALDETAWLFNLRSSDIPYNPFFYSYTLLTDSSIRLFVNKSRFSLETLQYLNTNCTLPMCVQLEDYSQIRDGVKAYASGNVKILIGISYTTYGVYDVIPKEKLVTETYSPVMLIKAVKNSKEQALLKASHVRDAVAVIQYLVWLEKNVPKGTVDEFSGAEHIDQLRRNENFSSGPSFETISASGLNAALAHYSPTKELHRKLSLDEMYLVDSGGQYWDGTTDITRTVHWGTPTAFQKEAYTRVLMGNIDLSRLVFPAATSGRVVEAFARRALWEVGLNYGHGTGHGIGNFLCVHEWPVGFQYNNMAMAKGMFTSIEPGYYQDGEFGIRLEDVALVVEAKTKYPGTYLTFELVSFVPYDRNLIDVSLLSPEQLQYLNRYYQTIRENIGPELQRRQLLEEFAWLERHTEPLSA
Experimental: (§1) The immediate metabolic fate of the AmP synthetic substrate Arg-Pro-Pro-[^3H]benzylamide (APPBz-^3H) (20 Ci/mmol) during a single transit from the right heart to the left was examined. Effects of increasing quantities of carrier APPBz and alternative AmP substrates such as bradykinin (BK) and des-Arg^9-BK (31) were then measured.

[8] = target: T2, pulmonary endothelial AmP; details: coinjected with tracer APPBz-3H
Experimental: as §1

Compound: C[C@H](N[C@@H](CCC(=O)Nc1ccccc1)C(=O)O)C(=O)N1CCC[C@H]1C(=O)O (racemic) [RAC-X-65]
- factor by which i.v. BK curves lay to the right of i.a. curves after ACE inhibition ([1]; after ACE inhibition): about four
- effect of ACE inhibition on BK log dose-response curves ([1]; long-acting ACE inhibitor, BK i.v. and i.a.): shifted both i.v. and i.a. log dose-response curves leftward

Compound: CCN1C(=O)C=CC1=O [N-ethylmaleimide]
- inhibition of AmP [2]: not inhibited

Compound: CCOC(=O)OC(=O)OCC [diethylpyrocarbonate]
- inactivation of pig kidney AmP [3]: completely inactivated

Compound: NC(=O)CI [iodoacetamide]
- inhibition of AmP [2]: not inhibited

Compound: O=C(O)c1cc[c]([Hg+])cc1.[OH-] [p-hydroxy-mercuribenzoate]
- inhibition of AmP ([2]; low concentration (~10 nM)): ~70%

Compound: Arg-Pro-Pro-benzylamide (peptide)
- dose that completely inhibits the hydrolysis of coinjected APPBz-^3H [4]: 2 µmol/kg
- dose that reduces by half the fractional hydrolysis of coinjected APPBz-^3H in a single pulmonary transit in vivo [4]: 42 nmol/kg b.w.

Compound: Gly-Pro-Hyp-Gly-Ala-Gly (GP[Hyp]GAG) [AAP, putative hormone called antiarrhythmic peptide]
- binding of AAP by AmP [5]: high affinity

Compound: RPPGFSPFR [BK, Arg-Pro-Pro-Gly-Phe-Ser-Pro-Phe-Arg]
- number of half-lifes BK is degraded through in a single transit [6]: 5-8 half-lifes
- degradation of BK by AmP alone ([1]; computed from 4-fold potentiation, PF=2^n, less than three sec): 75%
- ED50 [7]: 0.013 µmol/kg

Compound: bradykinin (peptide)
- dose that reduces by half the hydrolysis of coinjected APPBz-^3H in vivo [4]: 13 nmol/kg

Compound: des-Arg^1-BK: BK fragment formed by AmP; not a substrate but binds to the catalytic site (PPGFSPFR)
- affinity for AmP relative to BK [2]: as great an affinity for AmP as BK itself
- ED50: coinjected dose that reduces hydrolysis of APPBz-3H by half [8]: 30 nmol/kg

Compound: des-Arg^9-BK: alternative AmP substrate, bradykinin lacking Arg9 (RPPGFSPF)
- ED50: coinjected dose that reduces hydrolysis of APPBz-3H by half [8]: 107 nmol/kg

Compound: des-Arg^9-bradykinin (peptide)
- ED50 for inhibition of the hydrolysis of coinjected APPBz-^3H in vivo [4]: 107 nmol/kg
